According to paper PMC8765781, “A platform of assays for the discovery of anti-Zika small-molecules with activity in a 3D-bioprinted outer-blood-retina model” (PLoS ONE, 2022):
Read-outs that look alike come from different tables or passages of the source.

Tests used:
[1] = system: ZIKV-RLuc (Cambodian strain FSS13025); assay: microbe, parasite or virus in culture; format: cell-based, Zika virus
[2] = Zika virus, Vero, read-out: Log AC50 (M) (converted)

SMILES | CC-v2 (curve class classification v2 of the dose response curve) [1] | Efficacy (difference between neutral response and maximum compound response) [1] | Max Resp (difference between neutral response and compound response for highest compound concentration) [1] | AC50 ([1]; Zika virus, Vero) [M] | AC50 [1, 2] [M] | AC50 (Vero cells) [µM] | Log AC50 (M) (Vero cells) | AC50 [1] [M] | Log AC50 (M) [1]
CCN(CC)CCNC(=O)c1c(C)[nH]c(/C=C2\C(=O)Nc3ccc(F)cc32)c1C [NCGC00164631-04] | -2.1 | -103.003 | -99.557 | 1.17e-05 | 1.17e-05 | 11.7 |  |  | 
O=c1[nH]c2ccccc2n1C1CCN(Cc2ccc(-c3nc4cc5nc[nH]c5cc4nc3-c3ccccc3)cc2)CC1 [NCGC00165727-01] | -2.1 | -80.197 | -82.143 | 1.65e-05 | 1.65e-05 | 16.5 | -4.7827 |  | 
CN(C)C1CCN(CCCOc2ccc(-c3ccc(C#N)cc3)cc2)C1 (stereo not shown) [NCGC00165730-02] | -3 | -68.814 | -57.023 | 3.69e-05 | 3.69e-05 | 36.9 | -4.4327 |  | 
COc1cc(C(C)C)c2c(c1)[S+](=O)([O-])N(COc1cc(=O)n3cccc(OCCN4CCCCC4)c3n1)C2=O [NCGC00167751-03] | -2.1 | -105.384 | -99.738 | 2.33e-05 | 2.33e-05 | 23.3 | -4.6327 |  | 
O=c1cc(-c2ccc(O)c(O)c2)oc2c(C3O[C@H](CO)[C@H](O)[C@H](O)[C@H]3O)c(O)cc(O)c12 (stereo partly shown) [NCGC00168934-02] | -2.1 | -106.691 | -100.564 | 1.85e-05 | 1.85e-05 | 18.5 | -4.7327 |  | 
C/C=C(\C)C(=O)O[C@H]1CC2C(=C1C)[C@H]1OC(=O)[C@](C)(O)[C@]1(O)[C@H](OC(=O)CCC)C[C@@]2(C)OC(C)=O (stereo partly shown) [NCGC00169033-03] | -1.1 | -98.201 | -99.812 | 2.29e-06 | 2.29e-06 |  | -5.6408 |  | 
CCCCC/C=C/C(=O)CCc1ccc(O)c(OC)c1 [NCGC00169591-02] | -2.1 | -87.809 | -86.687 | 1.85e-05 | 1.85e-05 | 18.5 | -4.7327 |  | 
CCCCN(CCCC)CCC(O)c1cc2c(Cl)cc(Cl)cc2c2cc(C(F)(F)F)ccc12 (stereo not shown) [NCGC00179250-04] | -2.2 | -95.793 | -79.925 | 2.93e-05 | 2.93e-05 | 29.3 | -4.5327 |  | 
C[C@@H]1C[C@H]2[C@@H]3CCC4=CC(=O)C=C[C@]4(C)[C@@]3(Cl)[C@@H](O)C[C@]2(C)[C@@]1(OC(=O)c1ccco1)C(=O)CCl [NCGC00179578-03] | -2.1 | -100.838 | -97.726 | 2.33e-05 | 2.33e-05 | 23.3 | -4.6327 |  | 
O=C(/C=C/c1ccccc1)CC(O)CCc1ccccc1 (stereo not shown) [NCGC00180705-02] | -2.2 | -46.506 | -73.055 | 2.33e-05 | 2.33e-05 | 23.3 | -4.6327 |  | 
CC1(C)CCC(C)(C)c2cc(NC(=O)c3ccc(C(=O)O)cc3)ccc21 [NCGC00181111-01] | -3 | -105.549 | -80.478 | 3.69e-05 | 3.69e-05 | 36.9 | -4.4327 |  | 
CC1(C)CCC(C)(C)c2cc(NC(=O)c3ccc(C(=O)O)cc3)ccc21 [NCGC00181111-02] | -2.1 | -104.922 | -87.275 |  |  | 36.9 | -4.4327 | 3.69e-05 | -4.4327
